The values that follow are results of earlier work, collected in patent US20070104788A1, “Once-daily administration of central nervous system drugs” (priority 2005, published 2007).

Read-outs that look alike come from different tables or passages of the source.

For the data set the following is noted: for half life: background statement.

`Cc1cc(C)cc(OCC2CNC(=O)O2)c1` (stereo not shown) [metaxolone]: the “Half-Life Elimination” value reads like this: (after a meal) 2.4 ± 1.2 (after a meal) hours; (fasting) 9.2 ± 4.8 (fasting) hours.

`CN(C)C[C@H]1CCCC[C@]1(O)c1cccc(O)c1` [Ml]: the half life was 7.4 h.

As to `COc1cccc([C@@]2(O)CCCC[C@H]2CN(C)C)c1` (racemic) [tramadol], the half life was 6.3 h. Also, the “Half-Life Elimination” value (metabolite of tramadol) is 7 h. The “Half-Life Elimination” value (parent drug) is 5 to 6 h.

Regarding `COc1ccc2c3c1O[C@H]1C(=O)CC[C@@]4(O)[C@@H](C2)N(C)CC[C@]314` [oxycodone], where the note is “parent drug”, the “Half-Life Elimination” value was 0.4 h.
